Drawing on PubChem BioAssay (NCI), this text covers TGI for 7 compounds.

Test systems include SNB-75 CNS; BT-549 breast; HCT-116 colon; MALME-3M melanoma; K-562 leukemia; SK-OV-3 ovarian; CAKI-1 renal; A498 renal; SK-MEL-2 melanoma; OVCAR-3 ovarian; LOX IMVI melanoma; SK-MEL-5 melanoma; MCF7 breast; SN12C renal; EKVX NSCLC; PC-3 prostate; SF-539 CNS; MDA-MB-435; NCI-H460 lung; HCC-2998 colon.
Holding throughout (assay): growth of human tumour cells (NCI), 48 h

Each structure is given as a SMILES string.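 Five compound concentrations were applied to cells in 96-well plates for 48 hours; endpoints were derived by simple linear interpolation of the resulting dose-response curve. TGI is the concentration that stops growth completely.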

On to `COc1ccc(NC(=S)Nc2cc(C)cc(C)n2)cc1`, for which the TGI in the experiment on SNB-75 CNS, with BT-549 breast, in the experiment with HCT-116 colon, in the experiment with MALME-3M melanoma, in the experiment with K-562 leukemia and with SK-OV-3 ovarian was above 100 µM in each case. The TGI with CAKI-1 renal, in the experiment with A498 renal, in the experiment on SK-MEL-2 melanoma, in the experiment on OVCAR-3 ovarian, in the experiment with LOX IMVI melanoma and in the experiment with SK-MEL-5 melanoma was above 100 µM each time. In addition, the TGI in the experiment with MCF7 breast, in the experiment on SN12C renal, with EKVX NSCLC, in the experiment on PC-3 prostate, in the experiment with SF-539 CNS and in the experiment with MDA-MB-435 was above 100 µM throughout. The compound also showed a TGI with NCI-H460 lung above 100 µM.

With `CC(=O)Oc1c(C)c2c(c3ncccc13)OC(C)C2` (centres undefined), the TGI in the experiment on SNB-75 CNS turned out to be 28 µM; in the experiment with BT-549 breast it was 35.6 µM; in the experiment on HCT-116 colon, 32.3 µM; in the experiment with MALME-3M melanoma it was 30.2 µM; in the experiment with K-562 leukemia, 35.5 µM; with SK-OV-3 ovarian, 54.2 µM. The TGI is 27.8 µM in the experiment on CAKI-1 renal; 58.3 µM with A498 renal; 40.1 µM in the experiment with SK-MEL-2 melanoma; above 100 µM in the experiment with OVCAR-3 ovarian; 27.5 µM with SK-MEL-5 melanoma; 32.5 µM in the experiment on MCF7 breast. Further, the TGI in the experiment on HCC-2998 colon is 28.7 µM; in the experiment on SN12C renal, 30.1 µM; in the experiment with EKVX NSCLC, 30.8 µM; in the experiment with PC-3 prostate it was 92.1 µM; in the experiment with SF-539 CNS it was 28.7 µM; in the experiment with MDA-MB-435 it was 19 µM. In addition, the TGI in the experiment on NCI-H460 lung is 22.7 µM.

For `O=C1NC(N/N=C/C(O)C(O)C(O)C(O)CO)=N/C1=C\c1ccco1` (centres undefined), the TGI in the experiment on SNB-75 CNS, in the experiment with BT-549 breast, in the experiment on HCT-116 colon, in the experiment with MALME-3M melanoma, in the experiment with K-562 leukemia and in the experiment on SK-OV-3 ovarian was above 100 µM in each case. Besides, the TGI in the experiment with CAKI-1 renal, in the experiment on A498 renal, with SK-MEL-2 melanoma, in the experiment on OVCAR-3 ovarian, in the experiment with LOX IMVI melanoma and with SK-MEL-5 melanoma was above 100 µM throughout. Further, the TGI with MCF7 breast, in the experiment with SN12C renal, in the experiment on EKVX NSCLC, in the experiment on PC-3 prostate, with SF-539 CNS and in the experiment with MDA-MB-435 was above 100 µM in each case. Moreover, in the experiment with NCI-H460 lung, the TGI was above 100 µM.

For the compound `Cc1cccc2oc3c(CC(=O)O)cccc3c(=O)c12`, the TGI in the experiment with BT-549 breast, in the experiment on HCT-116 colon, in the experiment on MALME-3M melanoma, in the experiment on K-562 leukemia, with CAKI-1 renal and with A498 renal was above 100 µM in each case. Also, the TGI in the experiment with SK-MEL-2 melanoma is 17.4 µM; in the experiment on OVCAR-3 ovarian, above 100 µM; in the experiment on LOX IMVI melanoma, above 100 µM; with SK-MEL-5 melanoma it was above 100 µM; with MCF7 breast, above 100 µM; in the experiment on HCC-2998 colon, 40.9 µM. Besides, the TGI with SN12C renal, in the experiment on EKVX NSCLC, in the experiment on PC-3 prostate, in the experiment with SF-539 CNS, in the experiment with MDA-MB-435 and with NCI-H460 lung was above 100 µM in each case.

With `CN1Cc2ccccc2S(=O)(=O)n2cccc2C1=O`, the TGI with SNB-75 CNS, in the experiment on BT-549 breast, in the experiment on HCT-116 colon, with K-562 leukemia, in the experiment on SK-OV-3 ovarian and in the experiment with CAKI-1 renal was above 100 µM each time. In addition, the TGI in the experiment on A498 renal, in the experiment on SK-MEL-2 melanoma, in the experiment on OVCAR-3 ovarian, with LOX IMVI melanoma, in the experiment on SK-MEL-5 melanoma and in the experiment with MCF7 breast was above 100 µM each time. Besides, the TGI in the experiment with SN12C renal, in the experiment with EKVX NSCLC, in the experiment on PC-3 prostate, in the experiment on SF-539 CNS, with MDA-MB-435 and with NCI-H460 lung was above 100 µM in each case.

On to `COc1cc(NC(C)c2ccc3c(c2)OCCO3)cc(OC)c1OC` (centres undefined), for which the TGI in the experiment with BT-549 breast was above 100 µM; with HCT-116 colon it was above 100 µM; with MALME-3M melanoma it was 67.8 µM; in the experiment on K-562 leukemia, above 100 µM; with CAKI-1 renal, above 100 µM; in the experiment on A498 renal, above 100 µM. The TGI in the experiment on SK-MEL-2 melanoma is 79.8 µM; with OVCAR-3 ovarian, above 100 µM; in the experiment on LOX IMVI melanoma, above 100 µM; in the experiment on SK-MEL-5 melanoma it was 76.3 µM; with MCF7 breast, above 100 µM; with HCC-2998 colon, above 100 µM. Besides, the TGI with SN12C renal is above 100 µM; in the experiment on EKVX NSCLC, above 100 µM; in the experiment on PC-3 prostate it was above 100 µM; in the experiment with SF-539 CNS it was 60.4 µM; in the experiment on MDA-MB-435, 32 µM; in the experiment on NCI-H460 lung it was above 100 µM.

On to `N=C(N)c1ccc(/C=C/c2ccc(C(=N)N)cc2)cc1`, for which the TGI in the experiment with SNB-75 CNS, with BT-549 breast, in the experiment on HCT-116 colon, in the experiment with MALME-3M melanoma, in the experiment on K-562 leukemia and in the experiment with CAKI-1 renal was above 100 µM in each case. In addition, the TGI was 73.7 µM in the experiment with A498 renal; 87.3 µM in the experiment on SK-MEL-2 melanoma; above 100 µM with OVCAR-3 ovarian; above 100 µM with LOX IMVI melanoma; above 100 µM in the experiment on SK-MEL-5 melanoma; above 100 µM with MCF7 breast. Besides, the TGI in the experiment with HCC-2998 colon, in the experiment on SN12C renal, in the experiment on EKVX NSCLC, in the experiment with PC-3 prostate, in the experiment on MDA-MB-435 and with NCI-H460 lung was above 100 µM throughout.
